These results are taken from ChEMBL document CHEMBL5120845, “Design and synthesis of novel macrolones bridged with linkers from 11,12-positions of macrolides” (Bioorg Med Chem Lett, 2022).

The structures appear in SMILES notation. ≈ marks a conversion by molar mass, not a printed value. Bounds are passed on as bounds.

The nature of data set [1]: Half life in human liver microsomes at 1 uM by LC-MS/MS analysis. Format: ADME, Microsome. For orientation: Microsomes from liver hold many membrane-bound enzymes, among them those of drug oxidation.
Data set [2] in a line: Stability in rat liver microsomes assessed as unchanged drug level at 1 uM by LC-MS/MS analysis. The class given is ADME, Microsome. As to conditions: time 60 min, read-out: Stability.
A short description of data set [3]: Intrinsic clearance in human liver microsomes at 1 uM by LC-MS/MS analysis. Conditions: read-out: CLH. Format: ADME, Microsome.
Data set [4] in a line: Stability in rat liver microsomes assessed as unchanged drug level at 1 uM after 60 mins by LC-MS/MS analysis. The class given is ADME, Microsome. As to conditions: read-out: Stability.
Data set [5] has as its system Mycoplasmoides pneumoniae. In words: Antibacterial activity against erythromycin-susceptible Mycoplasma pneumoniae ATCC 29342 by microbroth dilution method. The class given is functional. (In general: Broth dilution looks for growth in wells or tubes with falling amounts of substance.)
In data set [6] the test system is Mycoplasmoides pneumoniae. In words: Antibacterial activity against erythromycin-resistant Mycoplasma pneumoniae A2058T by microbroth dilution method. Format: functional.
Data set [7] concerns Staphylococcus aureus. In words: Antibacterial activity against Staphylococcus aureus 15B196 by microbroth dilution method. Format: functional.
The subject of data set [8] is Streptococcus pneumoniae. Briefly: Antibacterial activity against Streptococcus pneumoniae 07P390 by microbroth dilution method. Format: functional.
The test system of the next data set is Streptococcus pyogenes. In words: Antibacterial activity against Streptococcus pyogenes 12-206 by microbroth dilution method. The class given is functional.
Data set [9] deals with Streptococcus pneumoniae. In words: Antibacterial activity against Streptococcus pneumoniae PU09 by microbroth dilution method. Format: functional.
For data set [10], the system named is Streptococcus pneumoniae. In words: Antibacterial activity against Streptococcus pneumoniae ATCC 49619 by microbroth dilution method. Format: functional.
The subject of another data set is Haemophilus influenzae. In words: Antibacterial activity against Haemophilus influenzae ATCC 49247 by microbroth dilution method. Format: functional.
Data set [11] has as its system Mycoplasmoides pneumoniae. In words: Antibacterial activity against erythromycin-resistant Mycoplasma pneumoniae A2059G by microbroth dilution method. Format: functional.
The subject of data set [12] is Mycoplasmoides pneumoniae. In words: Antibacterial activity against erythromycin-resistant Mycoplasma pneumoniae A2058G by microbroth dilution method. Format: functional.
Data set [13] deals with Staphylococcus aureus. Briefly: Antibacterial activity against Staphylococcus aureus PU32 by microbroth dilution method. Format: functional.

As to `CCOc1ccc2ccc(=O)oc2c1`, the half-life at 1 µM in data set [1] came out at 17.8 min. Further, the figures for the remaining at 1 h, 1 µM in data set [2] and in data set [4] were 0.695% and 8.69%, respectively. The CLint scaled at 1 µM in [3] was 70.2 mL/min/kg.

As for `CC[C@H]1OC(=O)[C@H](C)C(=O)[C@H](C)[C@@H](O[C@@H]2O[C@H](C)C[C@H](N(C)C)[C@H]2O)[C@](C)(OC)C[C@@H](C)C(=O)[C@H](C)[C@H]2N(CCCCc3ccc4c(=O)c(C(=O)O)cn(C5CC5)c4c3)C(=O)O[C@]12C`, in data set [1], the half-life at 1 µM is 39.1 min. Further, the MIC was found to be 8 ng/mL (≈ 0.00893 µM) in [5]; 16 µg/mL (≈ 17.9 µM) in data set [6]; 8 µg/mL (≈ 8.93 µM) in the data set with Staphylococcus aureus [7]; 2 µg/mL (≈ 2.23 µM) in the data set on Streptococcus pneumoniae [8]; 0.25 µg/mL (≈ 0.279 µM) against Streptococcus pyogenes; 0.5 µg/mL (≈ 0.558 µM) in the data set on Streptococcus pneumoniae [9]. The MIC in the data set on Streptococcus pneumoniae [10] is at most 0.008 µg/mL; in the data set with Haemophilus influenzae it was 4 µg/mL (≈ 4.46 µM); in data set [11], 32 µg/mL (≈ 35.7 µM); in [12] it was 32 µg/mL (≈ 35.7 µM); in the data set with Staphylococcus aureus [13], 1 µg/mL (≈ 1.12 µM). Further, the remaining at 1 h, 1 µM in [2] came to 100%; in data set [4], 35.1%. Also, the CLint scaled at 1 µM in data set [3] was 31.9 mL/min/kg.

On to `CC[C@H]1OC(=O)[C@H](C)C(=O)[C@H](C)[C@@H](O[C@@H]2O[C@H](C)C[C@H](N(C)C)[C@H]2O)[C@](C)(OC)C[C@@H](C)C(=O)[C@H](C)[C@H]2N(CCCCN3CCN(c4cc5c(cc4F)c(=O)c(C(=O)O)cn5C4CC4)CC3)C(=O)O[C@]12C`, for which the MIC against Staphylococcus aureus [7] was 256 µg/mL (≈ 256 µM); against Streptococcus pneumoniae [8] it was 2 µg/mL (≈ 2 µM); in the data set on Streptococcus pyogenes, 0.5 µg/mL (≈ 0.501 µM); against Streptococcus pneumoniae [9], 0.5 µg/mL (≈ 0.501 µM); against Streptococcus pneumoniae [10], at most 0.008 µg/mL; with Haemophilus influenzae it was 8 µg/mL (≈ 8.01 µM). Besides, the MIC with Staphylococcus aureus [13] came to 2 µg/mL (≈ 2 µM).

In the case of `CC[C@H]1OC(=O)[C@H](C)C(=O)[C@H](C)[C@@H](O[C@@H]2O[C@H](C)C[C@H](N(C)C)[C@H]2O)[C@](C)(OC)C[C@@H](C)C(=O)[C@H](C)[C@H]2N(CCN3CCN(c4c(F)cc5c(=O)c(C(=O)O)cn(C6CC6)c5c4OC)CC3)C(=O)O[C@]12C`, the MIC in the data set on Staphylococcus aureus [7] was 32 µg/mL (≈ 32 µM); with Streptococcus pneumoniae [8], 2 µg/mL (≈ 2 µM); in the data set with Streptococcus pyogenes, 8 µg/mL (≈ 8 µM); in the data set on Streptococcus pneumoniae [9], 2 µg/mL (≈ 2 µM); against Streptococcus pneumoniae [10] it was 0.25 µg/mL (≈ 0.25 µM); in the data set on Haemophilus influenzae, 32 µg/mL (≈ 32 µM). The molecule also registered an MIC with Staphylococcus aureus [13] of 8 µg/mL (≈ 8 µM).

For `CC[C@H]1OC(=O)[C@H](C)C(=O)[C@H](C)[C@@H](O[C@@H]2O[C@H](C)C[C@H](N(C)C)[C@H]2O)[C@](C)(OC)C[C@@H](C)C(=O)[C@H](C)[C@H]2N(CCCN3CCN(c4cc5c(cc4F)c(=O)c(C(N)=O)cn5C4CC4)CC3)C(=O)O[C@]12C`, the MIC with Staphylococcus aureus [7] was 512 µg/mL (≈ 521 µM); in the data set with Streptococcus pneumoniae [8], 256 µg/mL (≈ 260 µM); in the data set with Streptococcus pyogenes, 8 µg/mL (≈ 8.14 µM); against Streptococcus pneumoniae [9], 2 µg/mL (≈ 2.03 µM); with Streptococcus pneumoniae [10] it was 0.12 µg/mL (≈ 0.122 µM); in the data set with Haemophilus influenzae it was 128 µg/mL (≈ 130 µM). Also, the MIC in the data set on Staphylococcus aureus [13] was 2 µg/mL (≈ 2.03 µM).

For `CC[C@H]1OC(=O)[C@H](C)C(=O)[C@H](C)[C@@H](O[C@@H]2O[C@H](C)C[C@H](N(C)C)[C@H]2O)[C@](C)(OC)C[C@@H](C)C(=O)[C@H](C)[C@H]2N(CCCN3CCN(c4cc5c(cc4F)c(=O)c(C(=O)O)cn5C4CC4)CC3)C(=O)O[C@]12C`, the half-life at 1 µM in [1] is 110 min. Further, the MIC in data set [5] worked out at 8 ng/mL (≈ 0.00813 µM); in data set [6], 8 µg/mL (≈ 8.13 µM); against Staphylococcus aureus [7] it was 64 µg/mL (≈ 65 µM); in the data set with Streptococcus pneumoniae [8], 0.12 µg/mL (≈ 0.122 µM); in the data set with Streptococcus pyogenes, 1 µg/mL (≈ 1.02 µM); in the data set on Streptococcus pneumoniae [9] it was 1 µg/mL (≈ 1.02 µM). Besides, the MIC came out at 0.016 µg/mL (≈ 0.0163 µM) with Streptococcus pneumoniae [10]; 8 µg/mL (≈ 8.13 µM) against Haemophilus influenzae; 8 µg/mL (≈ 8.13 µM) in data set [11]; 8 µg/mL (≈ 8.13 µM) in [12]; 1 µg/mL (≈ 1.02 µM) in the data set on Staphylococcus aureus [13]. Moreover, the values for the remaining at 1 h, 1 µM in [2] and in [4] were 95.1% and 65%, respectively. Moreover, in data set [3], the CLint scaled at 1 µM was determined as 11.3 mL/min/kg.

For `O=C(O)c1cn(C2CC2)c2cc(N3CCNCC3)c(F)cc2c1=O` [CIPROFLOXACIN], the MIC in the data set with Staphylococcus aureus [7] is 1 µg/mL (≈ 3.02 µM); in the data set on Streptococcus pneumoniae [8], 2 µg/mL (≈ 6.04 µM); with Streptococcus pyogenes, 0.25 µg/mL (≈ 0.754 µM); against Streptococcus pneumoniae [9], 2 µg/mL (≈ 6.04 µM); in the data set with Streptococcus pneumoniae [10] it was 1 µg/mL (≈ 3.02 µM); with Haemophilus influenzae, 0.03 µg/mL (≈ 0.0905 µM). In addition, in the data set with Staphylococcus aureus [13], the MIC came to 32 µg/mL (≈ 96.6 µM).

Turning to `CC[C@H]1OC(=O)[C@H](C)[C@@H](O[C@H]2C[C@@](C)(OC)[C@@H](O)[C@H](C)O2)[C@H](C)[C@@H](O[C@@H]2O[C@H](C)C[C@H](N(C)C)[C@H]2O)[C@](C)(OC)C[C@@H](C)C(=O)[C@H](C)[C@@H](O)[C@]1(C)O` [CLARITHROMYCIN], the MIC in the data set on Staphylococcus aureus [7] came out at 512 µg/mL (≈ 685 µM); in the data set with Streptococcus pneumoniae [8], 512 µg/mL (≈ 685 µM); against Streptococcus pyogenes, 512 µg/mL (≈ 685 µM); in the data set on Streptococcus pneumoniae [9] it was 8 µg/mL (≈ 10.7 µM); in the data set with Streptococcus pneumoniae [10], 0.03 µg/mL (≈ 0.0401 µM); against Haemophilus influenzae it was 16 µg/mL (≈ 21.4 µM). In the data set with Staphylococcus aureus [13], this molecule showed an MIC of 64 µg/mL (≈ 85.6 µM).

As to `CC[C@H]1OC(=O)[C@H](C)C(=O)[C@H](C)[C@@H](O[C@@H]2O[C@H](C)C[C@H](N(C)C)[C@H]2O)[C@](C)(OC)C[C@@H](C)C(=O)[C@H](C)[C@H]2N(CCCCn3cnc(-c4cccnc4)c3)C(=O)O[C@]12C` [TELITHROMYCIN], the half-life at 1 µM in data set [1] came to 32.4 min. Besides, the MIC in [5] worked out at 8 ng/mL (≈ 0.00985 µM); in data set [6], 256 µg/mL (≈ 315 µM); in the data set on Staphylococcus aureus [7], 64 µg/mL (≈ 78.8 µM); against Streptococcus pneumoniae [8], 0.06 µg/mL (≈ 0.0739 µM); against Streptococcus pyogenes, 0.12 µg/mL (≈ 0.148 µM); with Streptococcus pneumoniae [9], 1 µg/mL (≈ 1.23 µM). Moreover, the MIC against Streptococcus pneumoniae [10] was found to be 0.008 µg/mL (≈ 0.00985 µM); against Haemophilus influenzae, 4 µg/mL (≈ 4.93 µM); in data set [11], 256 µg/mL (≈ 315 µM); in data set [12], 256 µg/mL (≈ 315 µM); in the data set on Staphylococcus aureus [13], 0.5 µg/mL (≈ 0.616 µM). In addition, the remaining at 1 h, 1 µM was found to be 93.2% in data set [2] and 26.3% in [4]. The CLint scaled at 1 µM in [3] worked out at 38.4 mL/min/kg.

Usually half-life stands for the time in which the quantity being followed falls by half. Low readings indicate fast loss, high ones slow loss.
